These results are taken from patent US11279715B2, “Process for removing radioactive isotopes from aqueous fluids by fluorine containing reagents, fluorine containing, water-insoluble salts of the radioactive isotopes, and their use as therapeutic agents” (priority 2016, dated 2022).

The nature of series [1]: Solubility of the salts in water and organic solvents. The format is physicochemical.
The conditions of series [2]: PB therapy, cited from earlier work.
The conditions of series [3]: in vivo; cited from earlier work.
A short description of series [4]: Specificity of the anion for Cs^+ in aqueous solution. Particulars: versus other cations. The text has this: For [H2NB2(C6F5)6]^− and [(H3O2)B2(C6F5)6]^− the process appears 100% specific for cesium so that cesium is quantitatively and exclusively separated from all other cations in the aqueous solution. Thus, a single and fully selective separation step is necessary only to separate cesium from the other components in the form of the intermediate Cs[L]. In a second step, intermediate Cs[L] is converted into the desired product CsA, allowing recycling of [L].
The interest of the inventors in weakly coordinating anions (WCAs) has led them to synthesize the new cesium salt, Cs[H2NB2(C6F5)6] (2). The inventors realized that (2) is insoluble in water and that it is instantaneously formed by mixing any aqueous solution containing Cs^+ with virtually any source of the [H2NB2(C6F5)]^− anion. The reaction is 100% specific for Cs^+, since only in this case [H2NB2(C6F5)6]^− changes its usual asymmetric conformation to an “inverse C2 symmetric” conformation to form a specific 3D lattice.

The nature of series [5]: Isolation of 2 from water containing other metal salts. The following applies: 450 mL water with CsCl 5·10^−5 mol/L plus KCl, PbCl2, CrCl3, CaCl2, FeCl3; reagent c≈4.75·10^−5 M. On the procedure:
To a water solution (450 mL), containing the inorganic salts listed below, was added [Na(OEt2)3][H2NB2(C6F5)6] (27.5 mg, 0.0214 mmol; FW=1285.4; c≈4.75·10^−5 M) and the suspension was stirred overnight. A brown precipitate resulted (color presumably arising from Fe(OH)3) which was filtered off and was washed with dichloromethane to extract 2. The solvent of the extract was evaporated to dryness to leave a colorless residue: yield 19.2 mg of 2 (0.0163 mmol, 76%; FW=1172.9), identified by comparison of the IR spectrum with that of pure 2.
List of Added Inorganic Salts

A short description of series [6]: Isolation of Cs[H2NB2(C6F5)6] (2) from neat water containing CsCl. On the procedure:
[Na(OEt2)3][H2NB2(C6F5)6] (69.6 mg, 0.0541 mmol; FW=1285.4; c≈0.9·10^−4 M) was dissolved in 570 mL of water. CsCl (9.5 mg, 0.0564 mmol; FW=168.4) was added and after brief mixing the clear solution was left unstirred. Soon colorless crystals began to separate. The mixture was left overnight and the precipitate was isolated by filtration; yield of 2 42.1 mg (0.0359 mmol, 66%; FW=1172.9). The aqueous mother liquor was extracted once with 20 mL of CH2Cl2. Evaporation of the solvent gave an additional crop of 20 mg (0.0170 mmol, 32%). Total isolated yield was 62.1 mg (0.053 mmol; 98%). The IR spectra of the isolated solids were identical with that of pure Cs[H2NB2(C6F5)6] (2).

Where two headings read alike, the source gives them in different places.

Regarding `Fc1c(F)c(F)c([B-]([NH2+][B-](c2c(F)c(F)c(F)c(F)c2F)(c2c(F)c(F)c(F)c(F)c2F)c2c(F)c(F)c(F)c(F)c2F)(c2c(F)c(F)c(F)c(F)c2F)c2c(F)c(F)c(F)c(F)c2F)c(F)c1F.[Cs+]` [Compound 2, Cs[H2NB2(C6F5)6]], the “solubility in CH2Cl2, THF, chloroform, Et2O and toluene” value in series [1] (CH2Cl2, THF and solvents of low dielectric constant) is reported as “dissolves well”. For the same molecule, the “solubility in MeOH” value in series [1] (MeOH) is listed as “only limited soluble”. For the same molecule, the solubility in alkanes entry in series [1] (alkanes) is on record as “virtually insoluble”. Further, the solubility in water entry in series [1] was “virtually insoluble”; in series [1] (listed as Cs[H2NB2(C6F5)6]) it was “insoluble”.

Consider `Fc1c(F)c(F)c([B-](c2c(F)c(F)c(F)c(F)c2F)(c2c(F)c(F)c(F)c(F)c2F)c2c(F)c(F)c(F)c(F)c2F)c(F)c1F.[Cs+]` [Compound 7, Cs[B(C6F5)4]], for which the solubility in water result in series [1] was “insoluble”.

Regarding `Fc1c(F)c(F)c([B-](c2c(F)c(F)c(F)c(F)c2F)(c2c(F)c(F)c(F)c(F)c2F)c2c(F)c(F)c(F)c(F)c2F)c(F)c1F.[Rb+]` [Compound 8, Rb[B(C6F5)4]], in series [1], the solubility in water result is recorded as “water insoluble”.

For `Fc1c(F)c(F)c([B-](c2c(F)c(F)c(F)c(F)c2F)(c2c(F)c(F)c(F)c(F)c2F)c2c(F)c(F)c(F)c(F)c2F)c(F)c1F.[Tl+]` [Compound 9, Tl[B(C6F5)4], reference compound], in series [1], the solubility in water entry is listed as “water insoluble”.

For the molecule `[C-]#N.[C-]#N.[C-]#N.[C-]#N.[C-]#N.[C-]#N.[C-]#N.[C-]#N.[C-]#N.[C-]#N.[C-]#N.[C-]#N.[C-]#N.[C-]#N.[C-]#N.[C-]#N.[C-]#N.[C-]#N.[Fe+2].[Fe+2].[Fe+2].[Fe+3].[Fe+3].[Fe+3].[Fe+3]` [Prussian blue, ferric hexacyanoferrate], the “biological half-life of retention of cesium” value in series [2] (adolescents) is reported as about 30 days; in series [2] (adults) it was “approximately 26 days”; in series [2] (children), about 24 days. The “absorption by the body via the bowels” value in series [3] is on record as “not absorbed by the body via the bowels to a noticeable extent”.

The molecule `Fc1c(F)c(F)c([B-]([NH2+][B-](c2c(F)c(F)c(F)c(F)c2F)(c2c(F)c(F)c(F)c(F)c2F)c2c(F)c(F)c(F)c(F)c2F)(c2c(F)c(F)c(F)c(F)c2F)c2c(F)c(F)c(F)c(F)c2F)c(F)c1F` [[H2NB2(C6F5)6]^−] came in with a specificity for cesium in series [4] of 100%.

Take `CCOCC.CCOCC.CCOCC.Fc1c(F)c(F)c([B-]([NH2+][B-](c2c(F)c(F)c(F)c(F)c2F)(c2c(F)c(F)c(F)c(F)c2F)c2c(F)c(F)c(F)c(F)c2F)(c2c(F)c(F)c(F)c(F)c2F)c2c(F)c(F)c(F)c(F)c2F)c(F)c1F.[Na+]` [[Na(OEt2)3][H2NB2(C6F5)6]]: the “yield of 2 isolated from water containing other metal salts” value in series [5] turned out to be 76%. Also, the “yield of 2 precipitated from water” value in series [6] (neat water 570 mL, reagent c≈0.9·10^−4 M, overnight, filtration) worked out at 66%. Moreover, the “total isolated yield of 2” value in series [6] (neat water, precipitate plus one CH2Cl2 extraction of the mother liquor) was found to be 98%.

Take “Cs[(C6F5)3B(OH2)—(HO)B(C6F5)3] [Compound 5]”: the solubility in water entry was “water insoluble” in series [1] and “insoluble” in series [1] (listed as Cs[H(OH)2B2(C6F5)6]).

The molecule [(H3O2)B2(C6F5)6]^− displayed a specificity for cesium in series [4] of 100%.
